The values that follow come from US20200131132A1, “FARNESOID X RECEPTOR AGONISTS AND USES THEREOF” (Metacrine, Inc., priority 2017, published 2020).

A word on the EC50: it is the midpoint of the concentration-response curve. Read a high EC50 as lower potency in that assay.

This assay concerns the target T1, hFXR (Homo sapiens, UniProt Q96RI1).
T1 construct: expressed in transfected cells; host or cells: CV-1 cells
T1 sequence (Q96RI1 1-486): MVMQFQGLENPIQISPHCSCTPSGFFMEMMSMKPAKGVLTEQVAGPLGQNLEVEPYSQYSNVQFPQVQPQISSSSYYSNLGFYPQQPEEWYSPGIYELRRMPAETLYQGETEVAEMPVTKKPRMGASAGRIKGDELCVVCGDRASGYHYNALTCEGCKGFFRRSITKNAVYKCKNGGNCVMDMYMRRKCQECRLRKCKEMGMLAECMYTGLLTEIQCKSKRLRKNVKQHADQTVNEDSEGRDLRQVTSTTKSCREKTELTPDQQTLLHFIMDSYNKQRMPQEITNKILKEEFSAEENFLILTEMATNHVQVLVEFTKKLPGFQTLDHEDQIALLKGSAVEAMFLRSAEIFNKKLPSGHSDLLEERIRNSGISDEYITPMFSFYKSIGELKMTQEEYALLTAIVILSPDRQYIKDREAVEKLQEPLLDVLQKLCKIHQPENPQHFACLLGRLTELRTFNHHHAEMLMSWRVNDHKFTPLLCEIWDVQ
T1 sequence (P19793 1-462 partner): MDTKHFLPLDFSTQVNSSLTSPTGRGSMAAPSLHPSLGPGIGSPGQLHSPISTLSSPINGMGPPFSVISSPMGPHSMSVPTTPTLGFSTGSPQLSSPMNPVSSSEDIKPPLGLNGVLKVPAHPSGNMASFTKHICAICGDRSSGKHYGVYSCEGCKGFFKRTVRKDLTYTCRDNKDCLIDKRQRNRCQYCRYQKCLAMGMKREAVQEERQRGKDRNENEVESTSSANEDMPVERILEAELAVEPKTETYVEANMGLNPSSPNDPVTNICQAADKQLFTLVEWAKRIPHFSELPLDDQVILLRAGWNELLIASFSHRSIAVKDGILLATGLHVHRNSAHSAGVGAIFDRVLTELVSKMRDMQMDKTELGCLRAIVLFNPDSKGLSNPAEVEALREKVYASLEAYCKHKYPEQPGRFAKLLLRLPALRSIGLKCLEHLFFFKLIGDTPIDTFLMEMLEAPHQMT
Put plainly: In Vitro FXR Assay (TK). In kind it is cell-based. The settings on record: CV-1 cells transfected with hFXR, hRXR, TK-ECRE-luc and pCMX-YFP; compounds incubated 18 hrs; luminescence. The procedure, abridged: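 Luciferase luminescence read-out from lysed CV-1 cells transiently co-expressing hFXR and hRXR with a TK-ECRE-luc reporter (pCMX-YFP co-transfected). Compound exposure lasted 18 h at 37 °C, 5% CO2, in medium containing charcoal super-stripped serum.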
On to `COC(=O)COc1ccc2c(N(Cc3ccc(-c4ccc(OC)c(C)c4)cc3)C(=O)CC(C)(C)C)nccc2c1` [Compound 9.01, Methyl 2-((1-(N-((4′-methoxy-3′-methyl-[1,1′-biphenyl]-4-yl)methyl)-3,3-dimethylbutanamido)isoquinolin-6-yl)oxy)acetate], for which the EC50 is 1000 to 10000 nM.

On to `COc1ccc(-c2ccc(CN(C(=O)CC(C)(C)C)c3nccc4cc(OCCCO)ccc34)cc2)cc1C` [Compound 8, N-(6-(3-Hydroxypropoxy)isoquinolin-1-yl)-N-((4′-methoxy-3′-methyl-[1,1′-biphenyl]-4-yl)methyl)-3,3-dimethylbutanamide], for which the EC50 was ≤ 1000 nM.

`COc1ccc(-c2ccc(CN(C(=O)CC(C)(C)C)c3nccc4cc(N5CCC(O)C5)ccc34)cc2)cc1C` (stereo not shown) [Compound 6, N-(6-(3-Hydroxypyrrolidin-1-yl)isoquinolin-1-yl)-N-((4′-methoxy-3′-methyl-[1,1′-biphenyl]-4-yl)methyl)-3,3-dimethylbutanamide]: the EC50 was ≤ 1000 nM.

In the case of `COc1ccc(-c2ccc(CN(C(=O)CC(C)(C)C)c3nccc4cc(N5CCNCC5)ccc34)cc2)cc1C` [Compound 6.09, N-((4′-Methoxy-3′-methyl-[1,1′-biphenyl]-4-yl)methyl)-3,3-dimethyl-N-(6-(piperazin-1-yl)isoquinolin-1-yl)butanamide], the EC50 lay in the range of 1000 to 10000 nM.

The compound `COc1ccc2c(N(Cc3ccc(-c4ccc(OC)c(C)c4)c(CO)c3)C(=O)CC(C)(C)C)nccc2c1` [Compound 21.01, N-((2-(Hydroxymethyl)-4′-methoxy-3′-methyl-[1,1′-biphenyl]-4-yl)methyl)-N-(6-methoxyisoquinolin-1-yl)-3,3-dimethylbutanamide] came in with an EC50 of 1000 to 10000 nM.

For `COc1ccc([C@H]2CC[C@H](CN(C(=O)CC(C)(C)C)c3nccc4cc(C)ccc34)CC2)cc1C` [Compound 3, N-((trans-4-(4-Methoxy-3-methylphenyl)cyclohexyl)methyl)-3,3-dimethyl-N-(6-methylisoquinolin-1-yl)butanamide], the EC50 was ≤ 1000 nM.

For `COc1cccc(-c2ccc3c(N(Cc4ccc(-c5ccc(OC)c(C)c5)cc4)C(=O)CC(C)(C)C)nccc3c2)n1` [Compound 15.01, N-((4′-Methoxy-3′-methyl-[1,1′-biphenyl]-4-yl)methyl)-N-(6-(6-methoxypyridin-2-yl)isoquinolin-1-yl)-3,3-dimethylbutanamide], the concentration for a half-maximal effect (EC50) is 1000 to 10000 nM.

Turning to `COc1ccc(-c2ccc(CN(C(=O)CC(C)(C)C)c3nccc4sccc34)cc2)cc1C` [Compound 4.05, N-((4′-Methoxy-3′-methyl-[1,1′-biphenyl]-4-yl)methyl)-3,3-dimethyl-N-(thieno[3,2-c]pyridine-4-yl)butanamide], the EC50 is ≤ 1000 nM.

With `COc1ccc(-c2ccc(CN(C(=O)CC(C)(C)C)c3nccc4cc(OC5CN(C)C5)ccc34)cc2)cc1C` [Compound 30, N-((4′-Methoxy-3′-methyl-[1,1′-biphenyl]-4-yl)methyl)-3,3-dimethyl-N-(6-((1-methylazetidin-3-yl)oxy)isoquinolin-1-yl)butanamide], the EC50 is > 10000 nM.

Turning to `COc1ccc(-c2ccc(CN(C(=O)CC(C)(C)C)c3nccc4cc(OCCN(C)C)ccc34)cc2)cc1C` [Compound 8.04, N-(6-(2-(Dimethylamino)ethoxy)isoquinolin-1-yl)-N-((4′-methoxy-3′-methyl-[1,1′-biphenyl]-4-yl)methyl)-3,3-dimethylbutanamide], the EC50 lay within 1000 to 10000 nM.

Take `COc1ccc(-c2ccc(CN(C(=O)CC(C)(C)C)c3nccc4cc(N5CCC(C#N)C5)ccc34)cc2)cc1C` (stereo not shown) [Compound 6.13, N-(6-(3-Cyanopyrrolidin-1-yl)isoquinolin-1-yl)-N-((4′-methoxy-3′-methyl-[1,1′-biphenyl]-4-yl)methyl)-3,3-dimethylbutanamide]: the EC50 was ≤ 1000 nM.

For the compound `COc1ccc(-c2ccc(CN(C(=O)CC(C)(C)C)c3nccc4cc(N(C)C)ccc34)cc2)cc1C` [Compound 6.1, N-(6-(Dimethylamino)isoquinolin-1-yl)-N-((4′-methoxy-3′-methyl-[1,1′-biphenyl]-4-yl)methyl)-3,3-dimethylbutanamide], the EC50 was ≤ 1000 nM.

As to `COc1ccc(-c2ccc(CN(C(=O)CC(C)(C)C)c3nccc4cc(OC5CNC5)ccc34)cc2)cc1C` [Compound 28.01, N-(6-(Azetidin-3-yloxy)isoquinolin-1-yl)-N-((4′-methoxy-3′-methyl-[1,1′-biphenyl]-4-yl)methyl)-3,3-dimethylbutanamide], the EC50 lay in the range of 1000 to 10000 nM.

As for `COc1ccc(-c2ccc(CN(C(=O)CC(C)(C)C)c3nccc4cc(CO)ccc34)cc2)cc1C` [Compound 2.01, N-(6-(Hydroxymethyl)isoquinolin-1-yl)-N-((4′-methoxy-3′-methyl-[1,1′-biphenyl]-4-yl)methyl)-3,3-dimethylbutanamide], the EC50 is ≤ 1000 nM.

For the compound `COc1ccc(-c2ccc(CN(C(=O)CC(C)(C)C)c3nccc4cc(COCC(=O)O)ccc34)cc2)cc1C` [Compound 29.01, 2-((1-(N-((4′-Methoxy-3′-methyl-[1,1′-biphenyl]-4-yl)methyl)-3,3-dimethylbutanamido)isoquinolin-6-yl)methoxy)acetic acid], the EC50 lay within 1000 to 10000 nM.

Consider `COc1ccc(-c2ccc(CN(C(=O)CC(C)(C)C)c3nccc4cc(N5CC(CO)C5)ccc34)cc2)cc1C` [Compound 6.15, N-(6-(3-(Hydroxymethyl)azetidin-1-yl)isoquinolin-1-yl)-N-((4′-methoxy-3′-methyl-[1,1′-biphenyl]-4-yl)methyl)-3,3-dimethylbutanamide], for which the EC50 is ≤ 1000 nM.

Regarding `COc1ccc(-c2ccc(CN(C(=O)CC(C)(C)C)c3nccc4cc(OC5CCN(C)CC5)ccc34)cc2)cc1C` [Compound 8.06, N-((4′-Methoxy-3′-methyl-[1,1′-biphenyl]-4-yl)methyl)-3,3-dimethyl-N-(6-((1-methylpiperidin-4-yl)oxy)isoquinolin-1-yl)butanamide], the EC50 was > 10000 nM.

With `COc1ccc(-c2ccc(CN(C(=O)CC(C)(C)C)c3nccc4cc(C)ccc34)cc2)cc1C` [Compound 12, N-((4′-Methoxy-3′-methyl-[1,1′-biphenyl]-4-yl)methyl)-3,3-dimethyl-N-(6-methylisoquinolin-1-yl)butanamide], the EC50 is ≤ 1000 nM.

`COc1ccc(-c2ccc(CN(C(=O)CC(C)(C)C)c3nccc4c(OC)cccc34)cc2)cc1C` [Compound 11.04, N-((4′-Methoxy-3′-methyl-[1,1′-biphenyl]-4-yl)methyl)-N-(5-methoxyisoquinolin-1-yl)-3,3-dimethylbutanamide]: the EC50 fell in the range of 1000 to 10000 nM.

In turn, `COc1ccc(-c2ccc(CN(C(=O)CC(C)(C)C)c3nccc4cnccc34)cc2)cc1C` [Compound 5.03, N-((4′-Methoxy-3′-methyl-[1,1′-biphenyl]-4-yl)methyl)-3,3-dimethyl-N-(2,6-naphthyridin-1-yl)butanamide] returned an EC50 of 1000 to 10000 nM.

`COc1ccc(-c2ccc(CN(C(=O)CC(C)(C)C)c3nccc4ccc(C#N)cc34)cc2)cc1C` [Compound 13, N-(7-Cyanoisoquinolin-1-yl)-N-((4′-methoxy-3′-methyl-[1,1′-biphenyl]-4-yl)methyl)-3,3-dimethylbutanamide] gave an EC50 of 1000 to 10000 nM.

`COc1ncc(-c2ccc3c(N(Cc4ccc(-c5ccc(OC)c(C)c5)cc4)C(=O)CC(C)(C)C)nccc3c2)s1` [Compound 15, N-((4′-Methoxy-3′-methyl-[1,1′-biphenyl]-4-yl)methyl)-N-(6-(2-methoxythiazol-5-yl)isoquinolin-1-yl)-3,3-dimethylbutanamide] returned a 50% effective concentration (EC50) of 1000 to 10000 nM.
